Non-standard residues stand in square brackets, D forms with d. Residues, ends and D or L forms follow the SMILES beside them. No end group written: not given here.
Tests used:
trypsin [1] = conditions: peptide remaining by HPLC, incubation with trypsin 100:1, 37° C.
Method: (§7) A 1000 μg/1000 μL trypsin solution (Thermo Fisher Scientific) was prepared by suspending the lyophilized enzyme in 50 mM ammonium bicarbonate buffer, pH 8.2. Peptide dissolved in the same buffer (1 μg/L) was incubated with trypsin (peptide:trypsin ratio=100:1) for 24 h at 37° C. Samples were collected at various time points and digestion was stopped by addition of 20% (v/v) of 0.5% formic acid in H2O. Samples were stored at −20° C. until analyzed by reverse-phase HPLC-MS. Experiments are performed in duplicate and data were fit with GraphPad Prism.

bEnd.3 cells = test: in vitro; conditions: bEnd.3, 24 h, 0.01-50 μM
Method: (§1) bEnd.3 brain endothelioma cells (ATCC® CRL-2299TM) were grown as a monolayer on 75 cm^2 T-flasks in DMEM supplemented with 10% fetal bovine serum (FBS), and 1% penicillin/streptomycin antibiotic solution (Gibco™, USA). Cells were cultured in a humidified atmosphere of 95% air and 5% CO2 at 37° C. (MCO-18AIC (UV), Sanyo, Japan), with the medium changed every other day. The cells were harvested from cell culture T-flasks when confluent with trypsin-EDTA (Gibco™, USA) and used in different assays (cell proliferation, in vitro BBB translocation and in vitro Bimolecular Fluorescence complementation).
(§2) The in vitro cytotoxicity of the compound to be evaluated is studied using the same cell line of the in vitro BBB model, namely bEnd.3 cells, to evaluate possible toxicity. bEnd.3 cell line was exposed to increasing concentrations of the compound for 24 h.
(§3) The assay is based on the ability of viable cells to reduce resazurin into resorufin, a highly fluorescent metabolite. Non-viable cells are not able to generate resorufin.
(§4) Therefore, using this approach is possible to distinguish between metabolic and non-metabolic cells, and indirectly to determine the cytotoxicity of different compounds. bEnd.3 cells were seeded onto a 96-well plate (Corning, USA) at 10,000 cells/100 μL/well and incubated for 24 h. After medium removal, 100 μL of previous diluted peptides (range between 0.01-50 μM) in DMEM medium were added to the wells. After 24 h incubation, 20 μL of CellTiter-Blue® Reagent was added to each well and incubated for 3 h in a humidified atmosphere of 5% CO2 at 37° C. The fluorescence intensity was measured with an λexc=560 nm and an λem=590 nm using an Infinite F200 TECAN plate reader. Medium and 1% Triton X-100-containing medium were used as positive controls (100% cell viability) and negative controls (0% cell viability), respectively. Cell viability (%) was determined using the following equation:
(§5) [formula] where Fp is the fluorescence intensity of peptide-treated cells, FNC is the fluorescence intensity for negative controls, and FPC is the fluorescence intensity for positive controls.
(§6) Experiments were performed on different days using independently grown cell cultures.

in vitro = conditions: mouse, bEnd.3 brain endothelioma cells
Method: as §1, §2, §3, §4, §5, §6

trypsin [2] = test: in vitro; conditions: pH 8.2
Method: as §7

[3] = target: T1, CB1R and 5-HT2AR heteromers (Homo sapiens, UniProt P28223); test: Disruption of CB1R and 5-HT2AR heteromers by bimolecular fluorescence complementation; format: cell-based; conditions: HEK-293T, CB1R-nYFP + 5-HT2AR-cYFP, peptide 4 μM, 4 h, 37° C.
T1 construct: expressed in transfected cells; host or cells: HEK-293T
T1 sequence (P28223 whole entry, one chain of several): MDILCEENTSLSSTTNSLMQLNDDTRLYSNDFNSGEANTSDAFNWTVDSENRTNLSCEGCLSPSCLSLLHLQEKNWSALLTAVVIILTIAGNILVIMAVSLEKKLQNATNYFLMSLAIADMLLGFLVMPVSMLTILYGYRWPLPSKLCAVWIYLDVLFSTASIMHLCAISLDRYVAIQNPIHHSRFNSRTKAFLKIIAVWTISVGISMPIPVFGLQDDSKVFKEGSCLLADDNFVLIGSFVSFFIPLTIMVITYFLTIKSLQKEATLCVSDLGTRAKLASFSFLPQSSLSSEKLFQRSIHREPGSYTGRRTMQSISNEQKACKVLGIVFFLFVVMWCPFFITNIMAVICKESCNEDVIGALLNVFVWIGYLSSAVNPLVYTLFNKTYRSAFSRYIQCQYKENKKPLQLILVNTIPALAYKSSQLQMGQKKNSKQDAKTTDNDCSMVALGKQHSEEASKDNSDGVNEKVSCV
Description: The method described in “Viñals* X, Moreno* E, Lanfumey L, Cordomi A, Pastor A, de La Torre R, Gasperini P, Navarro G, Howell L A, Pardo L, Lluís C, Canela El, McCormick* P J, Maldonado* R, Robledo* P. Cognitive Impairment Induced by Delta9-tetrahydrocannabinol Occurs through Heteromers between Cannabinoid CB1 and Serotonin 5-HT2A Receptors. PLoS Biology, 13(7): e1002194 (2015)” was used with the slight modifications herein described herein to determine the in vitro capacity of the peptides to disrupt CB1R and 5-HT2AR heteromers.
To obtain the YFP Venus hemi-truncated proteins fused to the receptors of interest (5-HT2AR-cYFP, CB1R-nYFP), 5-HT2AR was subcloned to be in-frame with restriction sites of pcDNA3.1-cVenus, which contained the sequences encoding amino acid residues 156-238 of YFP Venus protein. Moreover, CB1R was subcloned to be in-frame with restriction sites of pcDNA3.1-nVenus, which contained the sequences encoding amino acid residues 1-155 of YFP Venus protein.
Expression of constructs was tested by confocal microscopy and the receptor fusion protein functionality by ERK1/2 phosphorylation.
Human embryonic kidney (HEK-293T) cells obtained from ATCC were grown in Dulbecco's modified Eagle's medium (DMEM) (Gibco) supplemented with 2 mM L-glutamine, 100 μg/ml sodium pyruvate, 100 U/ml penicillin/streptomycin, MEM Non-Essential Amino Acids Solution (1/100), and 5% (v/v) heat inactivated fetal bovine serum (FBS) (all supplements were from Invitrogen, Paisley, Scotland, UK). Cells were maintained at 37° C. in an atmosphere of 5% CO2.
Cells growing in 6-well dishes were transiently transfected with the cDNA encoding for CB1R fused to the YFP Venus N-terminal fragment (n-YFP) and 5-HT2AR fused to the YFP Venus C-terminal fragment (c-YFP) by the PEI (PolyEthylenlmine, Sigma) method. Cells were incubated 4 h with the corresponding cDNA together with PEI and 150 mM NaCl in a serum-starved medium. After 4 h, the medium was changed to a fresh complete culture medium.
After 48 h, cells were treated or not with the indicated TAT-peptides (4 μM) for 4 h at 37° C. To quantify the complemented YFP Venus expression, cells were washed twice in quick succession in HBSS with 10 mM glucose, detached, and resuspended in the same buffer. To control the cell number, sample protein concentration was determined using a Bradford assay kit (Bio-Rad, Munich, Germany) using bovine serum albumin dilutions as standards. 20 μg protein were distributed into 96-well microplates (black plates with a transparent bottom, Porvair, King's Lynn, UK), and fluorescence emission at 530 nm after the excitation at 500 nm with a Mithras LB940 (Berthold Technologies, Bad Wildbad, Germany) was recorded. Protein fluorescence was determined as fluorescence of the sample minus the fluorescence of untransfected cells (basal).

[4] = Hot plate test (analgesic effect); format: in vivo; conditions: Vehicle (IV) + THC 10 mg/kg IP, hot plate 52° C., mice
Method: The method described in “Monory K, Blaudzun H, Massa F, Kaiser N, Lemberger T, Schütz G, Wotjak C T, Lutz B*, Marsicano G*. Genetic Dissection of Behavioural and Autonomic Effects of D9-tetrahydrocannabinol in Mice. PLoS Biology, 5(10): e269, 2007” was used with the slight modifications herein described to assess the analgesic effect of the peptides.
THC-induced analgesia was measured using a hot plate analgesia meter (Hot/Cold Plate Test, Bioseb, USA) 60 min after intraperitoneal injection (IP) of THC dissolved in an IP vehicle (5% v/v of ethanol, 5% v/v of Cremophor-EL and 90% v/v saline) or injection of the vehicle (saline plus 2% DMSO) alone and by intravenous injection 90 min after the first injection of the peptide to be tested in an IV vehicle or of the vehicle alone. […] A cut-off time of 240 s was set to prevent tissue damage.

[5] = Novel object recognition test (memory); format: in vivo; conditions: Vehicle (IV) + THC 3 mg/kg IP, mice
Method: The method described in “Puighermanal E, Marsicano G, Busquets-Garcia A, Lutz B, Maldonado R, Ozaita A. Cannabinoid modulation of hippocampal long-term memory is mediated by mTOR signaling. Nature Neuroscience, 12(9): 1152-8 (2009)” was used with the slight modifications herein described to assess the effect of the peptides on memory.
On day 1 (Habituation), mice were habituated for 9 min to the V-maze in which the task was performed. On the second day (Training), mice were put back in the V-maze for 9 min, two identical objects were presented and the time that the mice spent exploring each object was recorded. The mice were again placed in the maze 24 h later for 9 min (Test), one of the familiar objects was replaced with a novel object and the total time spent exploring each of the two objects (novel and familiar) was computed. Object exploration was defined as the orientation of the nose to the object at less than 2 cm. A discrimination index was calculated as the difference between the times spent exploring the novel or familiar object divided by the total time exploring the two objects. A higher discrimination index is considered to reflect greater memory retention for the familiar object as normal mice spend more time exploring a novel object than a familiar one. […]

Q: What does the source list for `CC[C@@H](C)[C@@H](NC(=O)CNC(=O)[C@@H](C)NC(=O)[C@H](NC(=O)[C@@H](Cc1ccc(O)cc1)NC(=O)[C@@H](C)NC(=O)[C@@H](Cc1ccc(O)cc1)NC(=O)[C@@H](CCSC)NC(=O)[C@@H](Cc1ccc(O)cc1)NC(=O)[C@H](NC(=O)[C@@H](CC(C)C)NC(=O)[C@H](N)Cc1c[nH]c2ccccc12)[C@H](C)CC)C(C)C)C(=O)N[C@H](CC(C)C)C(=O)N[C@H](CCCCN)C(=O)N[C@H](CCCNC(=N)N)C(=O)N[C@H](Cc1c[nH]c2ccccc12)C(N)=O` [Example 1, D-Trp-D-Leu-D-Ile-D-Tyr-D-Met-D-Tyr-D-Ala-D-Tyr-D-Val-D-Ala-Gly-D-Ile-D-Leu-D-Lys-D-Arg-D-Trp-NH2] (H-[dW][dL][dI][dY][dM][dY][dA][dY][dV][dA]G[dI][dL][dK][dR][dW]-NH2)?
A: % at t = 24 h (trypsin [1]; pH 8.2, 24 h): over 80%; % at t = 0 (trypsin [1]; pH 8.2, t = 0): 100.00 ± 2.05%; toxicity (in words) (bEnd.3 cells): no significant toxicity; EC50 at 24 h (in vitro): > 50 µM; viability at 24 h, 0.012 µM (in vitro): 98.3%; viability at 24 h, 0.024 µM (in vitro): 98.3%; viability at 24 h, 0.049 µM (in vitro): 98.7%; viability at 24 h, 0.1 µM (in vitro): 95.4%; viability at 24 h, 0.2 µM (in vitro): 100%; viability at 24 h, 0.39 µM (in vitro): 102%; viability at 24 h, 0.78 µM (in vitro): 98.9%; viability at 24 h, 1.56 µM (in vitro): 102%; viability at 24 h, 3.12 µM (in vitro): 100%; viability at 24 h, 6.25 µM (in vitro): 96.6%; viability at 24 h, 12.5 µM (in vitro): 104%; viability at 24 h, 25 µM (in vitro): 96.6%; viability at 24 h, 50 µM (in vitro): 75.7%; remaining at 24 h, 1 μg/L (trypsin [2]): 83 ± 4.04%; % vs. control (bimolecular fluorescence complementation) [3]: 49.8%

Q: With `CCCCCc1cc(O)c2c(c1)OC(C)(C)[C@@H]1CCC(C)=C[C@@H]21` [THC, Δ9-tetrahydrocannabinol] as the molecule, how does the “Jumping latency % increase vs control” value [4] read?
A: 71.4%

Q: And the “Licking latency % increase vs control” value [4]?
A: 104.2%

Q: And the “Discrimination index % increase vs. control” value [5]?
A: −52%

Q: For “Glu-Thr-Tyr-Leu-Met-Phe-Trp-Ile-Gly-Val-Thr-Ser-Val-Leu-Leu-Leu-Phe-Ile-Val-Tyr-Ala-Tyr-Met-Tyr-Ile-Leu-Trp-Gly-Arg-Lys-Lys-Arg-Arg-Gln-Arg-Arg-Arg-NH2 (ETYLMFWIGVTSVLLLFIVYAYMYILWGRKKRRQRRR-NH2) [Reference Example 1]”, which “% vs. control (bimolecular fluorescence complementation)” value (from here on “% vs. control”) [3] is on record?
A: 52.2%

Q: And the “Fluorescense units (bimolecular fluorescence complementation)” value (“Fluorescense units” below) [3]?
A: 11154 fluorescence units

Q: With “VYAYMYILW[dA]G[dI][dL][dK][dR][dW]-NH2 [Reference Example 2]” as the molecule, how does the “% vs. control” value [3] read?
A: 63.5%

Q: What about the “Fluorescense units” value [3] of the same molecule?
A: 13568 fluorescence units

Q: For “[dW][dL][dI][dY][dM][dA]G[dI][dL][dK][dR][dW]-NH2 [Reference Example 3]”, which “% vs. control” value [3] is on record?
A: 78.5%

Q: What about the “Fluorescense units” value [3] of the same molecule?
A: 16754 fluorescence units

Source: US12459973B2, “Peptide compounds for reducing side effects of CB1 receptor agonists” (priority 2019, dated 2025)
